System: ANME-SRB consortia
Assay: FISH-nanoSIMS 15N incorporation (anabolic activity) of ANME-SRB consortia
Type: cell-based, ANME-2c archaea and Desulfobacteraceae
Method: Incubations for FISH-nanoSIMS and RNA analysis. For AOM incubations with sulfate or AQDS that were used for nanoSIMS (FIG. 7 and FIG. 8A) and RNA analysis (FIG. 6), incubations experiments were set up following the AOM-rate measurements described above (initially containing 1.0 mM ammonium without ^15N label). Methane oxidation rates were tracked in these incubations via the ^13C label. After 11 days, ca. 3.5 mL of supernatant remained in the serum bottles to which 3.0 mL artificial seawater without ammonium containing either 25 mM AQDS, 28 mM sulfate, or no oxidant or electron acceptor was added. Next, 0.1 mL ^15NH4^+ (100 mM) was injected to yield about 2.0 mM ammonium with ca. 75% ^15N. Methane oxidation was monitored. After additional 8 days, the medium of the AQDS incubations was exchanged by 5.0 mL new medium containing 25 mM AQDS and 2.0 mM ^15NH4^+. Now the AQDS incubations contained ca. 95% ^15NH4^+ in the ammonium pool. The cultures were incubated for additional 10 days before harvest. Total incubation time with labeled ammonium: 18 days. Average labeling strength: ca. 75% for sulfate and no oxidant or electron acceptor control; ca. 86% for the AQDS incubations.
For the second independent set of experiments with iron citrate, humic acids and sulfate (FIG. 8B), the medium contained 1.0 mM ammonium with ca. 40% ^15N label throughout the incubation period. These experiments were carried out from identical incubations that were for the AOM rate measurements (highlighted in Table 4). In regards to Table 4, the percentage AOM rates are reported relative to sulfate-coupled AOM (1.50 μmol cm^−3 day^−1). Top: Summary of compounds described in FIG. 1B; Bottom: Oxidants or electron acceptors resulting in an AOM rate less than 0.10 μmol […] day^−1 (<7% rel. to sulfate as oxidant or electron acceptor).
Sampling for FISH-nanoSIMS and RNA. After an 18-day incubation in the presence of ^15NH4^+, each incubation was shaken to suspend the sediment and 1.0 mL sediment slurry was sampled using a disposable sterile needle and syringe (ca. 0.3 mL wet sediment). […]
Sample preparation for aggregate embedding, sectioning, FISH, and nanoSIMS. […] Sections of ca. 1 μm thickness were cut and stretched on a water droplet on a polylysine coated slide with teflon wells (Tekdon Inc) and analyzed by fluorescence in situ hybridization (FISH). […]
FISH conditions and probes. The FISH hybridization on thin sections of resin embedded microbial aggregates followed the recently optimized protocol described in S. E. McGlynn et al. The phylogenetic identity of microorganisms in the thin sections were determined using conventional FISH using oligonucleotide probes fluorescently labeled on both the 5′ and 3′ ends (dual labeled) as outlined herein. […]

## O=C1c2ccc(S(=O)(=O)O)cc2C(=O)c2ccc(S(=O)(=O)O)cc21 [AQDS, 9,10-anthraquinone-2,6-disulfonate]
18 days with 15NH4+
  doubling time of ANME cells based on average 15N-incorporation: 3.3 months
sulfate-free incubations
  anabolic activity within ANME-SRB consortia: occurred only in the ANME archaea

From US10011813B2, “Methane oxidation methods and compositions” (California Institute of Technology, priority 2015, dated 2018)
